Columns and labels:
[1] = tested on: diamondback moth (Plutella xylostella); experiment: Test A: control of diamondback moth on radish plant, foliar spray; assay type: in vivo; conditions: sprayed at 50 ppm; neonate larvae on radish; assessed after 6 days; replicated three times
From the text: For evaluating control of diamondback moth (Plutella xylostella) the test unit consisted of a small open container with a 12-14-day-old radish plant inside. This was pre-infested with about 50 neonate larvae that were dispensed into the test unit via corn-cob grits using a bazooka inoculator. The larvae moved onto the test plant after being dispensed into the test unit.
(§1) Test compounds were formulated using a solution containing 10% acetone, 90% water and 300 ppm X-77™ Spreader Lo-Foam Formula non-ionic surfactant containing alkylarylpolyoxyethylene, free fatty acids, glycols and isopropanol (Loveland Industries, Inc. Greeley, Colo., USA). The formulated compounds were applied in 1 mL of liquid through a SUJ2 atomizer nozzle with ⅛ JJ custom body (Spraying Systems Co. Wheaton, Ill., USA) positioned 1.27 cm (0.5 inches) above the top of each test unit. All experimental compounds in these tests were sprayed at 50 ppm, and the test was replicated three times. After spraying of the formulated test compound, each test unit was allowed to dry for 1 h and then a black, screened cap was placed on top. The test units were held for 6 days in a growth chamber at 25° C. and 70% relative humidity. Plant feeding damage was then visually assessed based on foliage consumed and a pest mortality rating was also counted and calculated for each test unit.

[2] = tested on: western flower thrips (Frankliniella occidentalis); experiment: Test E: control of western flower thrips on Soleil bean plant, contact and/or systemic; assay type: in vivo; conditions: adult thrips, assessed after 6 days, replicated three times
Description: as §1
For evaluating control of the western flower thrips (Frankliniella occidentalis) through contact and/or systemic means, the test unit consisted of a small open container with a 5-7 day old Soleil Bean plant inside. Test compounds were formulated and sprayed as described for Test A. All experimental compounds in these tests were sprayed at 250 or 50 ppm as noted, and the test was replicated three times. After spraying, the test units were allowed to dry for 1 hour and then 22-27 adult thrips were added to each unit and then a black, screened cap was placed on top. The test units were held for 6 days at 25° C. and 45-55% relative humidity. A mortality rating was assessed along with a plant damage rating for each test unit.

Q: `O=C(NC(C(=O)O)c1ccccc1)c1ccc(C2=NOC(c3cc(Cl)cc(Cl)c3)(C(F)(F)F)C2)c2ccccc12` (mixture of isomers) [Compound 5] was tested. Which “control efficacy (feeding damage or mortality): very good to excellent levels” value (from here on “control efficacy”) [1] did it give?
A: Its value is 20% or less feeding damage or 80% or more mortality.

Q: `CC(NC(=O)c1ccc(C2=NOC(c3cc(Cl)cc(OC(F)(F)F)c3)(C(F)(F)F)C2)c2ccccc12)C(=O)O` (mixture of isomers) [Compound 35] was tested. Which “control efficacy” value [1] did it give?
A: The value was 20% or less feeding damage or 80% or more mortality.

Q: Which “control efficacy” value [1] does the source give for `CC(NC(=O)c1ccc(C2=NOC(c3cc(Cl)cc(OCC(F)(F)F)c3)(C(F)(F)F)C2)c2ccccc12)C(=O)O` (mixture of isomers) [Compound 37] here?
A: Its value is 20% or less feeding damage or 80% or more mortality.

Q: `CN(CCCNC(=O)c1ccc(C2=NOC(c3cc(Cl)cc(Cl)c3)(C(F)(F)F)C2)c2ccccc12)C(=O)OC(C)(C)C` (racemic) [Compound 3] was tested. Which “control efficacy” value ([2]; sprayed at 50 ppm) did it give?
A: Its value is 20% or less feeding damage or 80% or more mortality.

Q: What about the “control efficacy” value ([2]; sprayed at 250 ppm) of the same compound?
A: The value was 20% or less feeding damage or 80% or more mortality.

Q: And the “control efficacy” value [1]?
A: The value was 20% or less feeding damage or 80% or more mortality.

Q: Which “control efficacy” value ([2]; sprayed at 50 ppm) does the source give for `CC(C)(NC(=O)c1ccc(C2=NOC(c3cc(Cl)cc(Cl)c3)(C(F)(F)F)C2)c2ccccc12)C(=O)O` (racemic) [Compound 6] here?
A: Its value is 20% or less feeding damage or 80% or more mortality.

Q: What about the “control efficacy” value ([2]; sprayed at 250 ppm) of the same compound?
A: Its value is 20% or less feeding damage or 80% or more mortality.

Q: And the “control efficacy” value [1]?
A: Its value is 20% or less feeding damage or 80% or more mortality.

Q: How did the “control efficacy” value [1] turn out when `O=C(O)CCNC(=O)c1ccc(C2=NOC(c3cc(Cl)cc(Cl)c3)(C(F)(F)F)C2)c2ccccc12` (racemic) [Compound 7] was run?
A: Its value is 20% or less feeding damage or 80% or more mortality.

Q: With `O=C(O)CNC(=O)c1ccc(C2=NOC(c3cc(Cl)c(Cl)c(Cl)c3)(C(F)(F)F)C2)c2ccccc12` (racemic) [Compound 8] as the compound, how does the “control efficacy” value ([2]; sprayed at 250 ppm) read?
A: Its value is 20% or less feeding damage or 80% or more mortality.

Q: What about the “control efficacy” value [1] of the same compound?
A: Its value is 20% or less feeding damage or 80% or more mortality.

Q: How did the “control efficacy” value [1] turn out when `CS(=O)(=O)NC(=O)c1ccc(C2=NOC(c3cc(Cl)cc(Cl)c3)(C(F)(F)F)C2)c2ccccc12` (racemic) [Compound 10] was run?
A: Its value is 20% or less feeding damage or 80% or more mortality.

Q: Which “control efficacy” value [1] does the source give for `O=C(O)CNC(=O)c1ccc(C2=NOC(c3cc(Cl)cc(Cl)c3)(C(F)(F)F)C2)c2ccccc12` (racemic) [Compound 12] here?
A: The value was 20% or less feeding damage or 80% or more mortality.

Q: For `O=C([O-])CNC(=O)c1ccc(C2=NOC(c3cc(Cl)cc(Cl)c3)(C(F)(F)F)C2)c2ccccc12.[Na+]` (racemic) [Compound 13], which “control efficacy” value [1] is on record?
A: The value was 20% or less feeding damage or 80% or more mortality.

Q: With `O=C(O)CNC(=O)c1ccc(C2=NOC(c3cc(Br)cc(C(F)(F)F)c3)(C(F)(F)F)C2)c2ccccc12` (racemic) [Compound 23] as the compound, how does the “control efficacy” value [1] read?
A: Its value is 20% or less feeding damage or 80% or more mortality.

Q: Which “control efficacy” value [1] does the source give for `CC(C)=NOC(=O)CNC(=O)c1ccc(C2=NOC(c3cc(C(F)(F)F)cc(C(F)(F)F)c3)(C(F)(F)F)C2)c2ccccc12` (racemic) [Compound 25] here?
A: Its value is 20% or less feeding damage or 80% or more mortality.

Q: `O=C(O)CNC(=O)c1ccc(C2=NOC(c3cc(Cl)cc(C(F)(F)F)c3)(C(F)(F)F)C2)c2ccccc12` (racemic) [Compound 26] was tested. Which “control efficacy” value ([2]; sprayed at 250 ppm) did it give?
A: Its value is 20% or less feeding damage or 80% or more mortality.

Q: What about the “control efficacy” value [1] of the same compound?
A: Its value is 20% or less feeding damage or 80% or more mortality.

Q: How did the “control efficacy” value [1] turn out when `O=C(O)CNC(=O)c1ccc(C2=NOC(c3cc(Cl)cc(OC(F)(F)F)c3)(C(F)(F)F)C2)c2ccccc12` (racemic) [Compound 34] was run?
A: The value was 20% or less feeding damage or 80% or more mortality.

Q: For `CC(C)[C@@H](NC(=O)c1ccc(C2=NOC(c3cc(C(F)(F)F)cc(C(F)(F)F)c3)(C(F)(F)F)C2)c2ccccc12)C(=O)O` (stereo partly drawn) [Compound 39], which “control efficacy” value [1] is on record?
A: The value was 20% or less feeding damage or 80% or more mortality.

Q: Which results are given for `CC(C)(NC(=O)c1ccc(C2=NOC(c3cc(Cl)cc(Cl)c3)(C(F)(F)F)C2)c2ccccc12)C(=O)NCC1CC1` (stereo not drawn) [Compound 43]?
A: control efficacy (feeding damage or mortality): very good to excellent levels ([2]; sprayed at 50 ppm): 20% or less feeding damage or 80% or more mortality; control efficacy (feeding damage or mortality): very good to excellent levels ([2]; sprayed at 250 ppm): 20% or less feeding damage or 80% or more mortality; control efficacy (feeding damage or mortality): very good to excellent levels [1]: 20% or less feeding damage or 80% or more mortality

Q: Which “control efficacy” value ([2]; sprayed at 250 ppm) does the source give for `O=C(CNC(=O)c1ccc(C2=NOC(c3cc(Cl)cc(Cl)c3)(C(F)(F)F)C2)c2ccccc12)NCc1ccccn1` (stereo not drawn) [Compound 45] here?
A: The value was 20% or less feeding damage or 80% or more mortality.

Q: What about the “control efficacy” value [1] of the same compound?
A: The value was 20% or less feeding damage or 80% or more mortality.

Q: How did the “control efficacy” value [1] turn out when `O=C(CNC(=O)c1ccc(C2=NOC(c3cc(Cl)cc(Cl)c3)(C(F)(F)F)C2)c2ccccc12)Nc1ccc(C(F)(F)F)cc1` (stereo not drawn) [Compound 46] was run?
A: The value was 20% or less feeding damage or 80% or more mortality.

Q: For `CSCCNC(=O)CNC(=O)c1ccc(C2=NOC(c3cccc(Br)c3)(C(F)(F)F)C2)c2ccccc12` (stereo not drawn) [Compound 57], which “control efficacy” value [1] is on record?
A: The value was 20% or less feeding damage or 80% or more mortality.

Q: `O=C(CNC(=O)c1ccc(C2=NOC(c3cccc(OC(F)(F)F)c3)(C(F)(F)F)C2)c2ccccc12)NCc1ccccn1` (stereo not drawn) [Compound 59] was tested. Which “control efficacy” value [1] did it give?
A: Its value is 20% or less feeding damage or 80% or more mortality.

Q: Which “control efficacy” value [1] does the source give for `O=C(CNC(=O)c1ccc(C2=NOC(c3cc(F)cc(F)c3)(C(F)(F)F)C2)c2ccccc12)NC1CC1` (stereo not drawn) [Compound 62] here?
A: The value was 20% or less feeding damage or 80% or more mortality.

Q: How did the “control efficacy” value [1] turn out when `O=C(CNC(=O)c1ccc(C2=NOC(c3cccc(F)c3)(C(F)(F)F)C2)c2ccccc12)NC1CC1` (stereo not drawn) [Compound 63] was run?
A: Its value is 20% or less feeding damage or 80% or more mortality.

Q: Which “control efficacy” value [1] does the source give for `CCS(=O)(=O)N1CCN(C(=O)CNC(=O)c2ccc(C3=NOC(c4cccc(C(F)(F)F)c4)(C(F)(F)F)C3)c3ccccc23)CC1` (stereo not drawn) [Compound 92] here?
A: Its value is 20% or less feeding damage or 80% or more mortality.

Q: For `COC(=O)[C@@H]1CCCN1C(=O)c1ccc(C2=NOC(c3cc(Cl)cc(Cl)c3)(C(F)(F)F)C2)c2ccccc12` (stereo partly drawn) [Compound 97], which “control efficacy” value [1] is on record?
A: Its value is 20% or less feeding damage or 80% or more mortality.

Q: `O=C(O)[C@@H]1CCCN1C(=O)c1ccc(C2=NOC(c3cc(Cl)cc(Cl)c3)(C(F)(F)F)C2)c2ccccc12` (stereo partly drawn) [Compound 99] was tested. Which “control efficacy” value [1] did it give?
A: The value was 20% or less feeding damage or 80% or more mortality.

Q: For `CNC(=O)[C@@H]1CCCN1C(=O)c1ccc(C2=NOC(c3cc(Cl)cc(Cl)c3)(C(F)(F)F)C2)c2ccccc12` (stereo partly drawn) [Compound 103], which “control efficacy” value [1] is on record?
A: The value was 20% or less feeding damage or 80% or more mortality.

Q: How did the “control efficacy” value [1] turn out when `CCNC(=O)[C@@H]1CCCN1C(=O)c1ccc(C2=NOC(c3cc(Cl)cc(Cl)c3)(C(F)(F)F)C2)c2ccccc12` (stereo partly drawn) [Compound 105] was run?
A: Its value is 20% or less feeding damage or 80% or more mortality.
